Experimental data from US8129396B2, “2-[1H-benzimidazol-2(3H)-ylidene]-2-(pyrimidin-2-yl)acetamides and 2-[benzothiazol-2(3H)-ylidene]-2-(pyrimidin-2-yl)acetamides as kinase inhibitors” (Telik, Inc., priority 2008, dated 2012).

Key:
p-H3 in HCT116 cells = experiment: Histone phosphorylation (p-H3) assay; format: cell-based; conditions: Homo sapiens, HCT-116; HCT116 cells, 4 hr incubation; read-out: p-H3 IC50
Outline: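 HCT116 cells (2.5×10^4/well, attached overnight) treated 4 h with 8-point 3-fold compound dilutions at 0.5% DMSO. Lysates dot-blotted onto nitrocellulose and probed for p-H3 with β-actin on the same membrane, fluorescent secondary antibodies, Odyssey scan; duplicate wells.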

Aurora B kinase = molecular target: T1, Aurora B kinase (Homo sapiens, UniProt Q96GD4); experiment: Aurora B kinase assay (IMAP fluorescence polarization); format: biochemical; conditions: 10 μM ATP; rounded to 1 significant figure; read-out: Aur-B IC50
T1 construct: purchased BPS Bioscience
Outline: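 Reaction started with 100 nM fluorescein-labelled PKAtide and 10 μM ATP, run 45 min at room temperature, then stopped with IMAP binding reagent (1:400). After 30 min shaking at room temperature, fluorescence polarization read; run in duplicate with solvent control.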

Aurora A kinase = molecular target: T2, Aurora A kinase (Homo sapiens, UniProt O14965); experiment: Aurora A kinase assay (IMAP fluorescence polarization); format: biochemical; conditions: 10 μM ATP; rounded to 1 significant figure; read-out: Aur-A IC50
T2 construct: purchased Upstate Biotech
T2 sequence (O14965 1-403): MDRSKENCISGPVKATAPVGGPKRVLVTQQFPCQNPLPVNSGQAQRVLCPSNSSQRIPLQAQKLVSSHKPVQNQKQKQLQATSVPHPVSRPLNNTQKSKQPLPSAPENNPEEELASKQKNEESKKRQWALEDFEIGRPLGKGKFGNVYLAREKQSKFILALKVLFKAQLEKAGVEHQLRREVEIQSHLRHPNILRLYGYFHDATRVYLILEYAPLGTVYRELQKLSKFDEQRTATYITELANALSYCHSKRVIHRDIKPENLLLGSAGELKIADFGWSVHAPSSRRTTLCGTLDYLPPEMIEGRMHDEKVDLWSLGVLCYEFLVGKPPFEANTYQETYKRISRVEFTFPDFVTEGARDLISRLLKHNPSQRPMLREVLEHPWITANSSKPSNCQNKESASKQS
Outline: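 Compounds (eight 3-fold dilutions, 2.5% DMSO final) were preincubated 5 min at room temperature with Aurora A kinase in buffer with 1 mM DTT. Reaction with 100 nM fluorescein-PKAtide and 10 μM ATP ran 45 min at room temperature, then was stopped with IMAP binding reagent; fluorescence polarization was read after 30 min.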

[1] = tested on: HCT116 (human colon carcinoma) cells; experiment: HCT116 cytotoxicity assay (CellTiter-Glo); format: cell-based; conditions: HCT-116, 72 h, cytotoxicity, three days culture, read-out: HCT116 IC50
[2] = tested on: HL60 (human promyelocytic leukemia) cells; experiment: HL60 cytotoxicity assay (CellTiter-Glo); format: cell-based; conditions: HL-60, 72 h, cytotoxicity, three days culture, read-out: HL60 IC50
Excerpt: (§1) The cell lines HL60 (human promyelocytic leukemia) and HCT116 (human colon carcinoma) were obtained from the American Type Culture Collection, Manassas, Va., U.S.A., and HUVEC-2 (human umbilical vein endothelial cells) from BD Biosciences, Bedford, Mass., U.S.A. Aurora A kinase was obtained from Upstate Biotech, Billerica, Mass., U.S.A.; Aurora B kinase from BPS Bioscience, San Diego, Calif., U.S.A.; and VEGFR2 kinase from Cell Signaling Technology, Danvers, Mass., U.S.A. The IMAP FP Screening Express kit was obtained from Molecular Devices, Sunnyvale, Calif., U.S.A.; the CellTiter-Glo assay kit from Promega Corporation, Madison, Wis., U.S.A.; and the Cellular DNA Cytometric Analysis Reagent Kit and BrdU labeling and detection kit from Roche Diagnostics Corporation, Indianapolis, Ind., U.S.A. All products were used in accordance with manufacturer's directions. Kinase inhibition assays and the histone phosphorylation (p-H3) assay were conducted in duplicate, and the cytotoxicity and HUVEC proliferation assays were conducted in triplicate, in each case with solvent control.
Log-phase cells were trypsinized, collected by centrifugation, and resuspended in a small volume of fresh medium, and the density of viable cells was determined following Trypan Blue staining. Cells were diluted in fresh media (1×10^4 cells/mL for HL60 and 4×10^4 cells/mL for HCT116 cells), the test compounds (concentrations between 0.1 μM and 200 μM, dissolved in DMSO, 50 μL) added immediately after dilution to achieve a final DMSO concentration of 0.5%, then the suspensions added at 150 μL/well to 96-well plates, and incubated overnight to allow attachment in the case of adherent cells. The cells were cultured for three days (about three doubling times). The cells were then collected by centrifugation, and 100 μL of the culture supernatant was replaced by the CellTiter-Glo reagent. After incubation for 15 minutes at room temperature, the plate was read with a luminometer.

VEGFR2 kinase = molecular target: T3, VEGFR2 kinase (Homo sapiens, UniProt P35968); experiment: VEGFR2 kinase assay; format: biochemical; conditions: 6 μM ATP, 1 mM MnCl2; rounded to 1 significant figure
T3 construct: purchased Cell Signaling Technology
Outline: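 VEGFR2 phosphorylates CSKtide with 6 μM ATP and 1 mM MnCl2 for 1 hr, otherwise following the Aurora A kinase protocol. Detection by IMAP fluorescence polarization, binding reagent diluted 1:1200 in 1:1 binding buffer A/B. Run in duplicate with solvent control.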

[3] = tested on: HUVEC-2 (human umbilical vein endothelial cells); experiment: HUVEC VEGF-dependent proliferation assay (BrdU); format: cell-based; conditions: VEGF (25 ng/mL)-dependent proliferation, read-out: HUVEC IC50
Excerpt: as §1
HUVEC-2 cells were seeded at 10^4 cells/well in a 96-well plate coated with 0.1% gelatin in complete medium. […] The compounds were serially diluted in DMSO, and added to the cells at 0.5% DMSO final concentration. After 2 hr, VEGF (25 ng/mL) was added; and after a further day, 5-bromo-2-deoxyuridine (BrdU, 10 μM) was added to label proliferating cells, and the cells incubated for another day. The plates were then processed using the Roche BrdU labeling and detection kit, and the VEGF-dependent antiproliferative activity of the compounds determined.

T3 sequence (P35968 20-1356): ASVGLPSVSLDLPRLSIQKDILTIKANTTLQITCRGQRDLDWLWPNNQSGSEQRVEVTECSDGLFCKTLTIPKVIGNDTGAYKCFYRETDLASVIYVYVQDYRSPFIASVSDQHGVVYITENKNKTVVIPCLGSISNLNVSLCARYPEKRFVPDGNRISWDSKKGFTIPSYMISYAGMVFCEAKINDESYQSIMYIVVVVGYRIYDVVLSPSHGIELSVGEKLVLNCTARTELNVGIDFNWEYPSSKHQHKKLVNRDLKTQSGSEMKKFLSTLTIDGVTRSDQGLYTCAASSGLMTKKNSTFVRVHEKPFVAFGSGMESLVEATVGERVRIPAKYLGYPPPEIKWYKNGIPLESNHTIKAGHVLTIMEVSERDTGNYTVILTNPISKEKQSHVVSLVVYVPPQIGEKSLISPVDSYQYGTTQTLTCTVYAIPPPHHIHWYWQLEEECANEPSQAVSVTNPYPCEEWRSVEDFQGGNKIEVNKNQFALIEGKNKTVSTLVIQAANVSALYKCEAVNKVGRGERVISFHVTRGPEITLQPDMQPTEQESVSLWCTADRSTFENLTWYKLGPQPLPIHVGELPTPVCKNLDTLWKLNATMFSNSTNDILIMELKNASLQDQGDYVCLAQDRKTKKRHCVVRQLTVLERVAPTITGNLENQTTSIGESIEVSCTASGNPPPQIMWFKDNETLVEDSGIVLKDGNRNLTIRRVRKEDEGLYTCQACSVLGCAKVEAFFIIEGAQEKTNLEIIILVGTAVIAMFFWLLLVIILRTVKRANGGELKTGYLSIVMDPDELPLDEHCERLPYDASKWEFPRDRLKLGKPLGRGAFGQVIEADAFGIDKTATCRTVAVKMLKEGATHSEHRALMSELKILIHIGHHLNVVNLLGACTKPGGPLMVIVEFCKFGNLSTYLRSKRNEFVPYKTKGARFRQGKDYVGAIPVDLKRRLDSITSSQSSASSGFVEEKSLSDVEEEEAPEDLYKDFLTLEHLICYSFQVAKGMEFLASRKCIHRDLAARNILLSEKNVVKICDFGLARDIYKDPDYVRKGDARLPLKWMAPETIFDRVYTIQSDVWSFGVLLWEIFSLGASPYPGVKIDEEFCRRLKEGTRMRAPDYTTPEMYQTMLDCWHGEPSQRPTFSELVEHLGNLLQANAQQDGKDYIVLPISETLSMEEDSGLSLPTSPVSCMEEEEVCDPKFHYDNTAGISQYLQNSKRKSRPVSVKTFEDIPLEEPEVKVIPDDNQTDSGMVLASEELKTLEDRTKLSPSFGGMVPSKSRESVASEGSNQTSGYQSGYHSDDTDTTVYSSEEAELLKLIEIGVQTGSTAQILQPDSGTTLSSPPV
T1 sequence (Q96GD4 whole entry): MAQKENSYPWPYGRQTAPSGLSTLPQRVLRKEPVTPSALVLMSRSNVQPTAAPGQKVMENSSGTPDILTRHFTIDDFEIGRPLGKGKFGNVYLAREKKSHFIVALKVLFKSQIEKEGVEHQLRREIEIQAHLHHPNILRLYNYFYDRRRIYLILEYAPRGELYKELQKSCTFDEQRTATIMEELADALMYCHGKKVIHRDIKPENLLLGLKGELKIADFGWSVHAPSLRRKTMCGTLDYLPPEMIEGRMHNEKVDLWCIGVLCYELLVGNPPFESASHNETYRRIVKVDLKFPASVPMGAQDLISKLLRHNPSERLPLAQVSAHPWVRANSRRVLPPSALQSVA

| SMILES | IC50 (p-H3 in HCT116 cells) | IC50 (Aurora B kinase) | IC50 (Aurora A kinase) | IC50 (VEGFR2 kinase) | IC50 [1] | IC50 [2] | IC50 [3] |
| --- | --- | --- | --- | --- | --- | --- | --- |
| Cn1ccnc1CCc1ccc2c(c1)S/C(=C(/C(N)=O)c1nccc(C(F)(F)F)n1)N2 [Compound 97A] | 100 nM | 7 nM | 20 nM | – | 600 nM | 1000 nM | – |
| NC(=O)/C(=C1\Nc2ccc(-c3ccccn3)cc2N1)c1nccc(C(F)(F)F)n1 [Compound 109A] | > 5000 nM | 9 nM | 20 nM | 50 nM | 3000 nM | 500 nM | – |
| Cc1cc(C(F)(F)F)nc(C(C(N)=O)=C2Nc3ccc(NC(=O)[C@@H]4CCCN4C)cc3N2)n1 (single isomer, unassigned) [Compound 144A] | 100 nM | 6 nM | 5 nM | – | 400 nM | 500 nM | – |
| NC(=O)/C(=C1\Nc2ccc(C(=O)N3CC[C@@H](N)C3)cc2N1)c1nccc(C(F)(F)F)n1 [Compound 68A] | 60 nM | 10 nM | 10 nM | 3 nM | 100 nM | – | 60 nM |
| CN1CCN(c2ccc3c(c2)N/C(=C(/C(N)=O)c2nccc(C(F)(F)F)n2)N3)CC1 [Compound 119A] | 200 nM | 6 nM | 9 nM | 6 nM | 1000 nM | – | 200 nM |
| CN1CCN(CCC(=O)Nc2ccc3c(c2)N/C(=C(/C(N)=O)c2nccc(C(F)(F)F)n2)N3)CC1 [Compound 83A] | 200 nM | 10 nM | 6 nM | 60 nM | 200 nM | – | 200 nM |

Continued, in another order:

| IC50 (p-H3 in HCT116 cells) | IC50 (Aurora B kinase) | IC50 (Aurora A kinase) | IC50 (VEGFR2 kinase) | SMILES | IC50 [1] | IC50 [2] | IC50 [3] |
| --- | --- | --- | --- | --- | --- | --- | --- |
| > 5000 nM | 20 nM | 7 nM | 30 nM | CC(C)(C)c1cc(C(F)(F)F)nc(C(C(N)=O)=C2Nc3ccccc3S2)n1 (single isomer, unassigned) [Compound 7A, 2-[benzothiazol-2(3H)-ylidene]-2-[4-tert-butyl-6-(trifluoromethyl)pyrimidin-2-yl]acetamide] | 6000 nM | 80 nM | – |
| 100 nM | 9 nM | 4 nM | 3 nM | CCN(CCO)C(=O)c1ccc2c(c1)S/C(=C(/C(N)=O)c1nccc(C(F)(F)F)n1)N2 [Compound 31A] | 200 nM | 1000 nM | – |
| 2000 nM | 10 nM | 20 nM | 200 nM | COc1cc(C(F)(F)F)nc(/C(C(N)=O)=C2/Nc3ccccc3S2)n1 [Compound 6A] | 4000 nM | 2000 nM | – |
| > 5000 nM | 10 nM | 40 nM | – | NC(=O)/C(=C1\Nc2ccccc2S1)c1nc(-c2ccccn2)cc(C(F)(F)F)n1 [Compound 11A] | 4000 nM | 3000 nM | – |
| 800 nM | 3 nM | 10 nM | – | NC(=O)/C(=C1\Nc2ccccc2S1)c1nc(N)cc(C(F)(F)F)n1 [Compound 13A] | 700 nM | 1000 nM | – |
| 80 nM | 8 nM | 40 nM | 9 nM | CN(C)CCOc1ccc2c(c1)S/C(=C(/C(N)=O)c1nccc(C(F)(F)F)n1)N2 [Compound 116A] | 400 nM | – | 100 nM |
